Measured values: patent US6869958B2, “Fused tetrahydropyridine derivatives as matrix metalloproteinase inhibitors” (Warner-Lambert Company, priority 2002, dated 2005)

Target: T1, hMMP-13CD (Homo sapiens, UniProt P45452)
T1 construct: a human MMP-13 catalytic domain (“hMMP-13CD”)
Experiment: Inhibition of MMP-13 catalytic domain (IC50)
Type: biochemical
Settings: human MMP-13 catalytic domain
Protocol: Thiopeptolide substrates show virtually no decomposition or hydrolysis at or below neutral pH in the absence of a matrix metalloproteinase enzyme. A typical thiopeptolide substrate commonly utilized for assays is Ac-Pro-Leu-Gly-thioester-Leu-Leu-Gly-OEt. A 100 μL assay mixture will contain 50 mM of N-2-hydroxyethylpiperazine-N′-2-ethanesulfonic acid buffer (“HEPES,” pH 7.0), 10 mM CaCl2, 100 μM thiopeptolide substrate, and 1 mM 5,5′-dithio-bis-(2-nitro-benzoic acid) (DTNB). The thiopeptolide substrate concentration may be varied, for example from 10 to 800 μM to obtain Km and Kcat values. The change in absorbance at 405 nm is monitored on a Thermo Max microplate reader (molecular Devices, Menlo Park, Calif.) at room temperature (22° C.). […]
Some representative compounds of Formula I have been evaluated for their ability to inhibit MMP-13. Inhibitor activity versus other MMPs with the compounds may be determined using, for example, MMP-1FL, which refers to full length interstitial collagenase; MMP-2FL, which refers to full length Gelatinase A; MMP-3CD, which refers to the catalytic domain of stromelysin; MMP-7FL, which refers to full length matrilysin; MMP-9FL, which refers to full length Gelatinase B; MMP-13CD, which refers to the catalytic domain of collagenase 3; and MMP-14CD, which refers to the catalytic domain of MMP-14. […]

IC50: > 50 µM
SMILES: O=C(O)c1ccc(Cn2ccc3ccc(C#CCn4ccnn4)cc3c2=O)cc1 [4-[1-oxo-7-(3-[1,2,3]triazol-1-ylprop-1-ynyl)-1H-isoquinolin-2-ylmethyl]benzoic acid]
